≈ marks a conversion by molar mass, not a printed value. Non-standard residues stand in square brackets, D forms with d. Residues, ends and D or L forms follow the SMILES beside them. Orn = NCCC[C@H](N)C(=O)O
Legend:
Pseudomonas aeruginosa [1] = assay: Antibacterial activity against multidrug-resistant Pseudomonas aeruginosa PA14 4.13 harboring phoQ mutant incubated for 16 to 20 hrs in full muller hinton medium by broth microdilution method; type: functional; conditions: time 16-20 hrs
Escherichia coli [2] = assay: Antimicrobial activity against Escherichia coli W3110 incubated for 16 to 20 hrs in 12.5 % muller hinton medium by broth microdilution method; type: functional; conditions: time 16-20 hrs
Pseudomonas aeruginosa [3] = assay: Antimicrobial activity against Pseudomonas aeruginosa PAO1 incubated for 16 to 20 hrs in 12.5 % muller hinton medium by broth microdilution method; type: functional; conditions: time 16-20 hrs
Pseudomonas aeruginosa [4] = assay: Antibacterial activity against multidrug-resistant Pseudomonas aeruginosa PA14 4.18 harboring pmrB mutant incubated for 16 to 20 hrs in 12.5 % muller hinton medium by broth microdilution method; type: functional; conditions: time 16-20 hrs
Enterobacter cloacae [5] = assay: Antibacterial activity against multidrug-resistant Enterobacter cloacae incubated for 16 to 20 hrs in 12.5 % muller hinton medium by broth microdilution method; type: functional; conditions: time 16-20 hrs
Pseudomonas aeruginosa [6] = assay: Antibacterial activity against multidrug-resistant Pseudomonas aeruginosa PA14 2P4 harboring pmrB mutant incubated for 16 to 20 hrs in 12.5 % muller hinton medium by broth microdilution method; type: functional; conditions: time 16-20 hrs
Klebsiella pneumoniae [7] = assay: Antibacterial activity against multidrug-resistant Klebsiella pneumoniae clinical isolate OXA-48 incubated for 16 to 20 hrs in 12.5 % muller hinton medium by broth microdilution method; type: functional; conditions: time 16-20 hrs
Klebsiella pneumoniae [8] = assay: Antimicrobial activity against Klebsiella pneumoniae NCTC 418 incubated for 16 to 20 hrs in full muller hinton medium by broth microdilution method; type: functional; conditions: time 16-20 hrs
Pseudomonas aeruginosa [9] = assay: Antibacterial activity against multidrug-resistant Pseudomonas aeruginosa clinical isolate ZEM9A incubated for 16 to 20 hrs in 12.5 % muller hinton medium by broth microdilution method; type: functional; conditions: time 16-20 hrs
Pseudomonas aeruginosa [10] = assay: Antibacterial activity against multidrug-resistant Pseudomonas aeruginosa clinical isolate ZEM-1A incubated for 16 to 20 hrs in 12.5 % muller hinton medium by broth microdilution method; type: functional; conditions: time 16-20 hrs
Staphylococcus aureus [11] = assay: Antimicrobial activity against methicillin-resistant Staphylococcus aureus COL incubated for 16 to 20 hrs in 12.5 % muller hinton medium by broth microdilution method; type: functional; conditions: time 16-20 hrs
[12] = Hemolytic activity in human RBC incubated for 4 hrs; type: toxicity, cell-based; conditions: erythrocyte
Pseudomonas aeruginosa [13] = assay: Antibacterial activity against multidrug-resistant Pseudomonas aeruginosa clinical isolate ZEM-1A incubated for 16 to 20 hrs in full muller hinton medium by broth microdilution method; type: functional; conditions: time 16-20 hrs
Pseudomonas aeruginosa [14] = assay: Antibacterial activity against multidrug-resistant Pseudomonas aeruginosa PA14 4.13 harboring phoQ mutant incubated for 16 to 20 hrs in 12.5 % muller hinton medium by broth microdilution method; type: functional; conditions: time 16-20 hrs
Acinetobacter baumannii [15] = assay: Antimicrobial activity against Acinetobacter baumannii ATCC 19606 incubated for 16 to 20 hrs in full muller hinton medium by broth microdilution method; type: functional; conditions: time 16-20 hrs
Pseudomonas aeruginosa [16] = assay: Antibacterial activity against multidrug-resistant Pseudomonas aeruginosa PA14 4.18 harboring pmrB mutant incubated for 16 to 20 hrs in full muller hinton medium by broth microdilution method; type: functional; conditions: time 16-20 hrs
Pseudomonas aeruginosa [17] = assay: Antimicrobial activity against Pseudomonas aeruginosa PAO1 incubated for 16 to 20 hrs in full muller hinton medium by broth microdilution method; type: functional; conditions: time 16-20 hrs
Pseudomonas aeruginosa [18] = assay: Antibacterial activity against multidrug-resistant Pseudomonas aeruginosa clinical isolate ZEM9A incubated for 16 to 20 hrs in full muller hinton medium by broth microdilution method; type: functional; conditions: time 16-20 hrs
Escherichia coli [19] = assay: Antimicrobial activity against Escherichia coli W3110 incubated for 16 to 20 hrs in full muller hinton medium by broth microdilution method; type: functional; conditions: time 16-20 hrs
Klebsiella pneumoniae [20] = assay: Antimicrobial activity against Klebsiella pneumoniae NCTC 418 incubated for 16 to 20 hrs in 12.5 % muller hinton medium by broth microdilution method; type: functional; conditions: time 16-20 hrs
Staphylococcus aureus [21] = assay: Antimicrobial activity against methicillin-resistant Staphylococcus aureus COL incubated for 16 to 20 hrs in full muller hinton medium by broth microdilution method; type: functional; conditions: time 16-20 hrs
Pseudomonas aeruginosa [22] = assay: Antibacterial activity against multidrug-resistant Pseudomonas aeruginosa PA14 2P4 harboring pmrB mutant incubated for 16 to 20 hrs in full muller hinton medium by broth microdilution method; type: functional; conditions: time 16-20 hrs
Pseudomonas aeruginosa [23] = assay: Antibacterial activity against multidrug-resistant Pseudomonas aeruginosa PA14 incubated for 16 to 20 hrs in full muller hinton medium by broth microdilution method; type: functional; conditions: time 16-20 hrs
Acinetobacter baumannii [24] = assay: Antimicrobial activity against Acinetobacter baumannii ATCC 19606 incubated for 16 to 20 hrs in 12.5 % muller hinton medium by broth microdilution method; type: functional; conditions: time 16-20 hrs
Pseudomonas aeruginosa [25] = assay: Antibacterial activity against multidrug-resistant Pseudomonas aeruginosa PA14 incubated for 16 to 20 hrs in 12.5 % muller hinton medium by broth microdilution method; type: functional; conditions: time 16-20 hrs
Enterobacter cloacae [26] = assay: Antibacterial activity against multidrug-resistant Enterobacter cloacae incubated for 16 to 20 hrs in full muller hinton medium by broth microdilution method; type: functional; conditions: time 16-20 hrs
Klebsiella pneumoniae [27] = assay: Antibacterial activity against multidrug-resistant Klebsiella pneumoniae clinical isolate OXA-48 incubated for 16 to 20 hrs in full muller hinton medium by broth microdilution method; type: functional; conditions: time 16-20 hrs

## CC[C@H](C)[C@H](NC(=O)[C@H](CCCN)NC(=O)[C@H](CCCNC(=N)N)NC(=O)[C@@H]1CCCN1C(=O)[C@@H]1CCCN1C(=O)[C@H](CCCNC(=N)N)NC(=O)[C@@H]1CCCN1C(=O)[C@H](CCCNC(=N)N)NC(=O)[C@@H]1CCCN1C(=O)[C@H](CC(C)C)NC(=O)[C@H](Cc1ccc(O)cc1)NC(=O)[C@@H]1CCCN1C(=O)[C@@H]1CCCN1C(=O)[C@H](CCCCN)NC(=O)[C@H](CC(=O)O)NC(=O)[C@@H](N)C(C)C)C(=O)N[C@@H](Cc1ccc(O)cc1)C(=O)N[C@@H](CC(N)=O)C(=O)N[C@@H](CCCN)C(N)=O (H-VDKPPYLPRPRPPR[Orn]IYN[Orn]-NH2)
Pseudomonas aeruginosa [1]
  MIC: > 32 µg/mL
Escherichia coli [2]
  MIC: 2 µg/mL (≈ 0.867 µM)
Pseudomonas aeruginosa [3]
  MIC: 16 µg/mL (≈ 6.94 µM)
Pseudomonas aeruginosa [4]
  MIC: 32 µg/mL (≈ 13.9 µM)
Enterobacter cloacae [5]
  MIC: 1 µg/mL (≈ 0.434 µM)
Pseudomonas aeruginosa [6]
  MIC: 16 µg/mL (≈ 6.94 µM)
Klebsiella pneumoniae [7]
  MIC: 2 µg/mL (≈ 0.867 µM)
Klebsiella pneumoniae [8]
  MIC: 8 µg/mL (≈ 3.47 µM)
Pseudomonas aeruginosa [9]
  MIC: 32 µg/mL (≈ 13.9 µM)
Pseudomonas aeruginosa [10]
  MIC: 16 µg/mL (≈ 6.94 µM)
Staphylococcus aureus [11]
  MIC: > 64 µg/mL
[12]
  MHC: > 1000 µg/mL
Pseudomonas aeruginosa [13]
  MIC: > 64 µg/mL
Pseudomonas aeruginosa [14]
  MIC: 32 µg/mL (≈ 13.9 µM)
Acinetobacter baumannii [15]
  MIC: 64 µg/mL (≈ 27.8 µM)
Pseudomonas aeruginosa [16]
  MIC: > 32 µg/mL
Pseudomonas aeruginosa [17]
  MIC: > 64 µg/mL
Pseudomonas aeruginosa [18]
  MIC: > 64 µg/mL
Escherichia coli [19]
  MIC: 8 µg/mL (≈ 3.47 µM)
Klebsiella pneumoniae [20]
  MIC: 4 µg/mL (≈ 1.73 µM)
Staphylococcus aureus [21]
  MIC: > 64 µg/mL
Pseudomonas aeruginosa [22]
  MIC: > 64 µg/mL
Pseudomonas aeruginosa [23]
  MIC: > 32 µg/mL
Acinetobacter baumannii [24]
  MIC: 8 µg/mL (≈ 3.47 µM)
Pseudomonas aeruginosa [25]
  MIC: 32 µg/mL (≈ 13.9 µM)
Enterobacter cloacae [26]
  MIC: 32 µg/mL (≈ 13.9 µM)
Klebsiella pneumoniae [27]
  MIC: 64 µg/mL (≈ 27.8 µM)

From ChEMBL document CHEMBL6083262, “Stereorandomized Oncocins with Preserved Ribosome Binding and Antibacterial Activity” (J Med Chem, 2024)
